The source made the active and inactive calls.
Columns and labels:
[1] = target: T1, Disintegrin and metalloproteinase domain-containing protein 17 (Homo sapiens, UniProt P78536); assay: exosite inhibitors of ADAM17, dose response, biochemical (AID 743260)
[2] = target: T1, Disintegrin and metalloproteinase domain-containing protein 17; assay: ADAM17 protease inhibitors, dose response, counter-screen for ADAM10 exosite inhibitor project, biochemical, quenched FRET substrate (AID 743253)
[3] = ADAM10 inhibitors, peptide cleavage, dose response, biochemical, QFRET (AID 743254);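 also: ADAM10 enzyme with the DM2 quenched FRET peptide as substrate; EDANS fluorescence gain as the protease cuts the substrate; inhibitor potency against ADAM10 proteolytic activity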
[4] = target: ADP-ribosylation factor GTPase-activating protein 1 (Rattus norvegicus, UniProt Q62848); assay: Fluorescence polarization-based biochemical high throughput dose response screening assay to identify inhibitors of ADP-ribosylation factor GTPase activating protein 1 (ARFGAP1).; type: functional
[5] = target: Arf-GAP with SH3 domain, ANK repeat and PH domain-containing protein 1 (Homo sapiens, UniProt Q9ULH1); type: functional;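 also: biochemical fluorescence polarization dose–response screen measuring inhibition of ASAP1; ASAP1 GAP domain stimulating GTP hydrolysis by truncated human ARF1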
cells [6] = type: functional, cell-based
cells [7] = type: functional, cell-based; remark: listed apart in the source
Major prion protein = Major prion protein (Homo sapiens, UniProt P04156); type: functional, cell-based
cells [8] = assay: cells
BJ [9] = assay: cytotoxicity toward BJ-TERT fibroblasts, dose response, cell-based, RAS-independent, luminescence (AID 1933); type: functional; details: Homo sapiens
[10] = HEK293 cell cytotoxicity, dose response, cytotoxicity control, dry powder samples (AID 720567); type: functional, cell-based
cells [11] = type: functional, cell-based; remark: listed apart in the source
[12] = inhibitors of SNCA 5'UTR-driven reporter translation, confirmation, H4 neuroglioma cells, luminescence (AID 1988); type: functional, cell-based
[13] = inhibitors of SNCA 5'UTR-driven translation, confirmation, luminescence, H4 neuroglioblastoma cells, dose confirmation (AID 2454); type: functional, cell-based;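 also: H4 neuroglioblastoma cells carrying an alpha-synuclein 5'UTR luciferase reporter; potency for inhibition of the luciferase signal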
[14] = luciferase reporter signal reduction – luminescence, H4-C neuroglioblastoma cells, dose response (AID 2458); type: functional, cell-based;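 also: H4 neuroglioblastoma cells stably carrying a luciferase reporter gene fusion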
[15] = inhibitors of firefly luciferase expression or activity, dose response, H4 neuroglioma cells, luminescence (AID 1990); type: functional, cell-based
[16] = cytotoxicity toward DRD oncogenic fibroblasts, dose response, cell-based, non-viral oncogenic, luminescence (AID 1934); type: functional; details: Homo sapiens
BJ [17] = assay: cells; type: functional, cell-based; details: Homo sapiens
BJ [18] = assay: cytotoxicity toward BJ-TERT-LT-ST fibroblasts, dose response, cell-based, RAS-independent, luminescence (AID 1935); type: functional; details: Homo sapiens;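 also: BJ fibroblasts immortalized with TERT plus LT and ST oncogenes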
[19] = target: Fructose-bisphosphate aldolase (Mycobacterium tuberculosis, UniProt P9WQA3); assay: Fluorescence-based biochemical high throughput dose response assay for inhibitors of the fructose-bisphosphate aldolase (FBA) of M. tuberculosis.; type: functional
[20] = target: SWI/SNF-related matrix-associated actin-dependent regulator of chromatin subfamily A member 2 (Homo sapiens, UniProt P51531); assay: Luminescence-based cell-based high throughput dose response assay to identify activators of the function of SWI/SNF related, matrix associated, actin dependent regulator of chromatin, subfamily a, member 2 (SMARCA2, BRM).; type: functional
[21] = Counterscreen for activators of the function of SWI/SNF related, matrix associated, actin dependent regulator of chromatin, subfamily a, member 2 (SMARCA2, BRM): Luminescence-based cell-based high throughput dose response assay to identify non-selective compounds using the VP16 reporter assay.; type: functional
[22] = target: FAD-linked sulfhydryl oxidase ALR (Homo sapiens, UniProt P55789); assay: inhibitors of human ALR sulfhydryl oxidase, dose response, biochemical, H2O2 detection, luminescence, cherry-pick (AID 493248)
cells [23] = type: functional, cell-based; remark: listed apart in the source
cells [24] = type: functional, cell-based; remark: listed apart in the source
[25] = target: T2, Trace amine-associated receptor 1 (Homo sapiens, UniProt Q96RJ0); assay: Fluorescence-based cell-based high throughput dose response assay to identify agonists of the human trace amine associated receptor 1 (TAAR1).; type: functional
T2 sequence (Q96RJ0 whole entry): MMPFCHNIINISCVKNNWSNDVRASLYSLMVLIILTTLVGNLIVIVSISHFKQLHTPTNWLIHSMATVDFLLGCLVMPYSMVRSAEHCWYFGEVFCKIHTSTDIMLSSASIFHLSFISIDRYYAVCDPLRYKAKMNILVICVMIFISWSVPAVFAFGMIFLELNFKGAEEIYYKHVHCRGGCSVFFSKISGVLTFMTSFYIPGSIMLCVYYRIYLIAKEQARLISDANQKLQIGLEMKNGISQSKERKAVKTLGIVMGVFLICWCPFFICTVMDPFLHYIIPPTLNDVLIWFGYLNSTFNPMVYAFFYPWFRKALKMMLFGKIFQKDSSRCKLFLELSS

[26] = target: T2, Trace amine-associated receptor 1; assay: Counterscreen for agonists of the human trace amine associated receptor 1 (hTAAR1): Fluorescence-based cell-based high throughput dose response assay to identify hTAAR1 agonist that also desensitize TAAR1 receptor response.; type: functional
[27] = target: T3, Oxysterols receptor LXR-beta (Homo sapiens, UniProt P55055); type: functional, cell-based;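 also: Cell-based luminescence dose-response assay of agonist activity at LXR, run as a confirmatory counterscreen to a daf-12 agonist screen; HEK293 cells with Gal4-LXR fusion and GAL4-driven luciferase reporter; agonist potency from rising luciferase signal of a Gal4-LXR reporter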
T3 sequence (P55055 whole entry): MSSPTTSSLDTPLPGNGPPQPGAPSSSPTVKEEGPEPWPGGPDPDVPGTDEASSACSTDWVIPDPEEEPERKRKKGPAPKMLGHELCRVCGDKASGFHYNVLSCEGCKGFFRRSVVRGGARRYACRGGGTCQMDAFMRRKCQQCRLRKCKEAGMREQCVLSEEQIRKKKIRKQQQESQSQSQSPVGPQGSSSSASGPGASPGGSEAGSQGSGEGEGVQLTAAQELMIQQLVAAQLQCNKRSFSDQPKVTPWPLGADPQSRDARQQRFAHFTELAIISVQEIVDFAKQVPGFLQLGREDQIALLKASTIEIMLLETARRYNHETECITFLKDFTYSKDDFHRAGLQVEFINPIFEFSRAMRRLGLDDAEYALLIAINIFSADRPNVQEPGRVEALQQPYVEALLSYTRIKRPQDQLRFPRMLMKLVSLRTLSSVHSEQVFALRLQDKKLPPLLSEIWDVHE

cells [28] = assay: cells; remark: listed apart in the source

With `COc1ccc(N(CC(O)Cn2c3ccccc3c3ccccc32)S(=O)(=O)c2ccccc2)cc1` (stereo not drawn) the IC50 [1] was > 69.5 µM (inactive), the IC50 [2] was > 69.5 µM (inactive) and the IC50 [3] was > 69.5 µM (inactive).

For `Cc1ccc2nc(SCC(=O)N3CCCCC3)nc(=O)n2c1`, the IC50 [4] was 32 µM (inactive), the IC50 [5] was 45.9 µM (inactive) and the EC50 (cells [6]) was > 350 µM (not active). The EC50 (cells [7]) was > 350 µM (not active).

In the case of `COC(=O)c1sc(N=C(S)NNC(=O)c2c(Br)c(C)nn2C)c(C(=O)OC)c1C`, the IC50 (Major prion protein) is reported as 1.16 µM (active) and the IC50 (cells [8]) is reported as > 138 µM (inactive).

In the case of `COc1ccc(NC(=O)C(=O)c2cn(CC(=O)N3CCCC3)c3ccccc23)cc1`, the EC50 (BJ [9]) is reported as 2.77 µM (active), the AC50 [10] is reported as 0.143 µM (active) and the EC50 (cells [11]) is reported as 0.515 µM (active). The EC50 [12] was < 0.1 µM (active), the EC50 [13] was 0.681 µM (active) and the EC50 [14] was 0.323 µM (active). The EC50 [15] was 0.269 µM (inconclusive), the EC50 [16] was 2.25 µM (active) and the EC50 (BJ [17]) was 1.54 µM (active). For the same compound, the EC50 (BJ [18]) was 2.34 µM (inconclusive).

With `CCOC(=O)c1cnc2ccc(C)cn2c1=O` the IC50 [19] was 1.23 µM (active).

For `Cc1ccc(O)c(CNc2nc3ccccc3n2C)c1`, the EC50 [20] was > 91.2 µM (inactive), the EC50 [21] was > 91.2 µM (inactive) and the AC50 [22] was 9.83 µM (active).

In the case of `COc1ccc2c(c1)C(SCC(=O)NCCc1ccccc1)CC(C)(C)O2` (stereo not drawn), the EC50 (cells [23]) is reported as > 29.9 µM (inactive), the IC50 (cells [24]) is reported as > 29.9 µM (inactive) and the EC50 [25] is reported as 1.04 µM (active). The IC50 [26] was 2.31 µM (active).

For `COc1ccc(-n2nnnc2SCC(=O)c2ccc3c(c2)OCCO3)c(OC)c1`, the IC50 [4] was 17.7 µM (inactive) and the IC50 [5] was 12.6 µM (inactive).

For `CNc1ncc(C(=O)c2ccc(Cl)cc2)s1`, the IC50 (Major prion protein) was 6.92 µM (active) and the IC50 (cells [8]) was > 138 µM (inactive).

In the case of `O=C1C(=C2CCc3ccccc32)Cc2ccccc21`, the EC50 [27] is reported as > 67.4 µM (inactive) and the EC50 (cells [28]) is reported as > 67.4 µM (inactive).

In the case of `O=C(CSC1=NS(=O)(=O)c2ccccc2N1)NCCc1ccccc1`, the EC50 (cells [23]) is reported as > 29.9 µM (inactive), the IC50 (cells [24]) is reported as > 29.9 µM (inactive) and the EC50 [25] is reported as 3.33 µM (active). The IC50 [26] was 6.94 µM (active).

With `Cc1cc(OC(C)C(=O)NCCCN2CCOCC2)c2c(C)cc(=O)oc2c1` (stereo not drawn) the IC50 [19] was 1.32 µM (active).

Reference: ChEMBL document CHEMBL1201862, “PubChem BioAssay data set” (2004)
